How the values were obtained:
D2 (hD2L receptor) = target: T1, D2 (hD2L receptor) (Homo sapiens, UniProt P14416); assay: Radioligand binding assay, dopamine D2; details: [3H] spiperone 1 nM; read-out: Binding affinity IC50 D2
T1 construct: purchased BioSignal Packard Inc., Montreal, Canada
Experimental: (§1) Radioligand binding assays for dopamine receptor family (D1, D2 and D3) were performed according to the protocols provided by the manufacturer of receptor membranes (BioSignal Packard Inc., Montreal, Canada). The radioligands used were [^3H] spiperone (for hD2L and hD3 receptors, 1 nM) and [^3H] YM-09151-2 (hD4.2 receptor, 0.06 nM). Briefly, the buffer used in the D1, D2 and D3 receptor binding assay was 50 mM Tris-HCl (pH 7.4), containing 10 mM MgCl2 and 1 mM EDTA, or 50 mM Tris-HCl (pH 7.4), containing 5 mM MgCl2, 5 mM EDTA, 5 mM KCl, 1.5 mM CaCl2 and 120 mM NaCl. For [^3H] YM-09151-2 receptor binding assays, 50 mM Tris-HCl (pH 7.4) containing 5 mM MgCl2, 5 mM EDTA, 5 mM KCl and 1.5 mM CaCl2, was used as a buffer. Nonspecific binding was determined with haloperidol (10 μM) for D2 and D3 and clozapine (10 μM) for D4 receptors.
(§2) Competition binding studies were carried out with 7-8 concentrations of the test compound run in duplicate tubes, and isotherms from three assays were calculated by computerized nonlinear regression analysis (GraphPad Prism Program, San Diego, […]) to yield median inhibitory concentration (IC50) values.

D4 (hD4.2 receptor) = target: T2, D4 (hD4.2 receptor) (Homo sapiens, UniProt P21917, DEL265-296); assay: Radioligand binding assay, dopamine D4; details: [3H] YM-09151-2 0.06 nM; read-out: Binding affinity IC50 D4
T2 construct: purchased BioSignal Packard Inc., Montreal, Canada
T2 sequence (P21917 with tags, fused parts or gaps DEL265-296): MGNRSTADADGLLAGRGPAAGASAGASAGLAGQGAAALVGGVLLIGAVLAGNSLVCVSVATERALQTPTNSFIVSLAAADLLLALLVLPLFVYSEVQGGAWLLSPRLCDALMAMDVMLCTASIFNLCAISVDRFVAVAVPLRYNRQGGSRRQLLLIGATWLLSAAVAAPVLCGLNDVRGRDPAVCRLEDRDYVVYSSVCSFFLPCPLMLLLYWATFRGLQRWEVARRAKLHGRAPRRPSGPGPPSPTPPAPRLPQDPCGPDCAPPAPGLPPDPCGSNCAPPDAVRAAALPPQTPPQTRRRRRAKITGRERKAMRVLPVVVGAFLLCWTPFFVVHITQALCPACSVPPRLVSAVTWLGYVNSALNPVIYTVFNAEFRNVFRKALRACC
Experimental: as §1, §2

[1] = target: 5-HT7 (human recombinant receptor, CHO-K1) (Homo sapiens, UniProt P34969); assay: Radioligand binding assay, 5-HT7
Sequence of 5-HT7 (human recombinant receptor, CHO-K1) (P34969 whole entry): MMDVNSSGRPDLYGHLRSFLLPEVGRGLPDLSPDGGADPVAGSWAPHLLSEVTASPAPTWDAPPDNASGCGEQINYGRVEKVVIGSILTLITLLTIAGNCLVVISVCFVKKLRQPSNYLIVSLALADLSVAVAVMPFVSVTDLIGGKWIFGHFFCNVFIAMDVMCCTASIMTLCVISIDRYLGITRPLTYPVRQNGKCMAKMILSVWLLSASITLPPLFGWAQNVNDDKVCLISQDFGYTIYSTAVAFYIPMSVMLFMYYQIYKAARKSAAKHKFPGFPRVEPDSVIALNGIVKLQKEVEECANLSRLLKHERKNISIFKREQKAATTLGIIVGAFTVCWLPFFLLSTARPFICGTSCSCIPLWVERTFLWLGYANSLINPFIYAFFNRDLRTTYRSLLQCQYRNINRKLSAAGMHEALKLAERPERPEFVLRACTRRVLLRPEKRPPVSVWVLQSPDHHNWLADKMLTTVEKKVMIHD

[2] = target: T3, 5-HT1a (human recombinant receptor, CHO-K1) (Homo sapiens, UniProt P08908); assay: Radioligand binding assay, 5-HT1a
T3 sequence (P08908 1-422): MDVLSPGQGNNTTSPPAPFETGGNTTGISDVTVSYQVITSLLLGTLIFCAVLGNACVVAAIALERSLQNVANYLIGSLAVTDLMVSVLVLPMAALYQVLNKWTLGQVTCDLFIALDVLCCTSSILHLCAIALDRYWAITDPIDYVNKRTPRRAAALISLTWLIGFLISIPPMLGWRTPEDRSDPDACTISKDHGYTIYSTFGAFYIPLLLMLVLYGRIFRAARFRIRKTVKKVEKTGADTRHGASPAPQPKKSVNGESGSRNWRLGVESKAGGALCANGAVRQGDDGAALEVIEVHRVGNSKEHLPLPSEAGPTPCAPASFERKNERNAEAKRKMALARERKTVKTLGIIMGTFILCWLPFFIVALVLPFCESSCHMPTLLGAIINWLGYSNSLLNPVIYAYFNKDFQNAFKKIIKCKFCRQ

[3] = target: 5-HT2a (human recombinant receptor, CHO-K1) (Homo sapiens, UniProt P28223); assay: Radioligand binding assay, 5-HT2a
Sequence of 5-HT2a (human recombinant receptor, CHO-K1) (P28223 whole entry): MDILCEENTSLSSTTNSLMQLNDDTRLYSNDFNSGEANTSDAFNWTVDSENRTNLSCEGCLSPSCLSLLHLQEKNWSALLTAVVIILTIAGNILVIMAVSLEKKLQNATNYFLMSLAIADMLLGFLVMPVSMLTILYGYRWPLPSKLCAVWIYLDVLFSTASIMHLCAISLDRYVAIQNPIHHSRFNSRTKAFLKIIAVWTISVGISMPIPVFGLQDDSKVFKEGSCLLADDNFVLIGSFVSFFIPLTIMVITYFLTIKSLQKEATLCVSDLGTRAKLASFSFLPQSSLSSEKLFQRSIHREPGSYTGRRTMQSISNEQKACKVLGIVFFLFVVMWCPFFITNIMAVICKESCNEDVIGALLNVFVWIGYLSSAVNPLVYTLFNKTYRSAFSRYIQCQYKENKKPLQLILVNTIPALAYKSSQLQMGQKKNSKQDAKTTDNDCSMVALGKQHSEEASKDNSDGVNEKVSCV

[4] = target: T4, 5-HT2c (human recombinant receptor, CHO-K1) (Homo sapiens, UniProt P28335); assay: Radioligand binding assay, 5-HT2c
T4 sequence (P28335 33-458): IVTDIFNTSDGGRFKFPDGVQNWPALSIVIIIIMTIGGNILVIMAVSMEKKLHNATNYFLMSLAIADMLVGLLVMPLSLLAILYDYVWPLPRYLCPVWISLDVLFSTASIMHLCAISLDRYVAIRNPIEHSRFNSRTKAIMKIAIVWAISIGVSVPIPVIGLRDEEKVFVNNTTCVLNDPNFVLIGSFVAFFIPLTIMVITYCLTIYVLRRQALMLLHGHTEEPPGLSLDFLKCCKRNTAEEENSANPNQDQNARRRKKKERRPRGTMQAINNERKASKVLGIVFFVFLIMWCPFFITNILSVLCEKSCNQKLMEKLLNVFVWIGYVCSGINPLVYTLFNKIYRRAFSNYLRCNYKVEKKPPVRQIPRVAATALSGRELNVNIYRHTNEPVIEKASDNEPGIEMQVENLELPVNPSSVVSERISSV

D3 (hD3 receptor) = D3 (hD3 receptor) (Homo sapiens, UniProt P35462); assay: Radioligand binding assay, dopamine D3
Sequence of D3 (hD3 receptor) (P35462 whole entry): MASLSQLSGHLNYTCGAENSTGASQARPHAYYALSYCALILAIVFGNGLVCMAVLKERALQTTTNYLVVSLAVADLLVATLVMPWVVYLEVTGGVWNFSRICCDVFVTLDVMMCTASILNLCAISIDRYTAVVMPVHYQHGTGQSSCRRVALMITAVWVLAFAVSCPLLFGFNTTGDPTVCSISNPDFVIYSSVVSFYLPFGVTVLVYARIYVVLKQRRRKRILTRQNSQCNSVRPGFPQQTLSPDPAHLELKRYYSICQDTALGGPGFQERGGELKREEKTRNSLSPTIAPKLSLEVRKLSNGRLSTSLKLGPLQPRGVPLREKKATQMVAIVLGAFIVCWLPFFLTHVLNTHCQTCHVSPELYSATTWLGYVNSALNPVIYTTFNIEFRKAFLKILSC

[5] = target: human serotonin 5-HT6 receptor (Homo sapiens, UniProt P50406); assay: [3H]LSD binding assay for cloned 5-HT6 receptors
Sequence of human serotonin 5-HT6 receptor (P50406 whole entry): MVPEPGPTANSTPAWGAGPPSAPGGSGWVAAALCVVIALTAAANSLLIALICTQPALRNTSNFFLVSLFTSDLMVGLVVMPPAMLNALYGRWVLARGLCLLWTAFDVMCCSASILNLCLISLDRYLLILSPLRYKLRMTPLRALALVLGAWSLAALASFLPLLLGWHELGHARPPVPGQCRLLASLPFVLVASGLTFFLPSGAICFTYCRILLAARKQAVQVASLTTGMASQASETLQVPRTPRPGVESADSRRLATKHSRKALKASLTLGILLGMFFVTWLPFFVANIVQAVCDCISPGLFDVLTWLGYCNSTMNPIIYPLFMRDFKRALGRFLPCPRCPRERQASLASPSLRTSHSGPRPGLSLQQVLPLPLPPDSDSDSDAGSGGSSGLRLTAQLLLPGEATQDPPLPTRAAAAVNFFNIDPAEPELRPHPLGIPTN

T1 sequence (P14416 whole entry): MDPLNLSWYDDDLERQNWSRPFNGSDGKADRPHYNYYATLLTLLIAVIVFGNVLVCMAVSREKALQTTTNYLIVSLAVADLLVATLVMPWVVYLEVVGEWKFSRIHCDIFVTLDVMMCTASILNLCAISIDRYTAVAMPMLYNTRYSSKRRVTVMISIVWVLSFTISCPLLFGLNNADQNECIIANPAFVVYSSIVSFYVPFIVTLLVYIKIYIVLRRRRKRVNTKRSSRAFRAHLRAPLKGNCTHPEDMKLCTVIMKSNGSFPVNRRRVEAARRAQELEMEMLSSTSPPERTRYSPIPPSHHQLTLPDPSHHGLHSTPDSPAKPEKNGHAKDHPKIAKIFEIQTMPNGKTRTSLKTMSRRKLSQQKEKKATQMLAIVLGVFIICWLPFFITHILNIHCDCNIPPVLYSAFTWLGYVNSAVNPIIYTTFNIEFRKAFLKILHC

Compound: Cc1ccccc1Cn1c(=O)c2c(N3CCN(C)CC3)cc(Cl)cc2n(Cc2ccccc2)c1=O [Example 22, 1-benzyl-7-chloro-3-(2-methyl-benzyl)-5-(4-methyl-piperazin-1-yl)-1H-quinazoline-2,4-dione]
- IC50 (D2 (hD2L receptor)): > 10 µM
- IC50 (D4 (hD4.2 receptor)): > 10 µM
- melting point: 92 to 95 °C
- IC50 [1]: 3.97 µM
- IC50 [2]: 5.78 µM
- IC50 [3]: 0.663 µM
- IC50 [4]: 0.216 µM
- IC50 (D3 (hD3 receptor)): 1.54 µM
- IC50 [5]: 0.0021 µM

Compound: CN1CCN(c2cc(Cl)cc3c2c(=O)n(Cc2cccc(I)c2)c(=O)n3Cc2ccccc2)CC1 [Example 20, 1-benzyl-7-chloro-3-(3-iodo-benzyl)-5-(4-methyl-piperazin-1-yl)-1H-quinazoline-2,4-dione]
- IC50 (D2 (hD2L receptor)): > 10 µM
- IC50 (D4 (hD4.2 receptor)): > 10 µM
- melting point: 182 to 184 °C
- IC50 [1]: 1.92 µM
- IC50 [2]: 3.53 µM
- IC50 [3]: 0.912 µM
- IC50 [4]: 1.05 µM
- IC50 (D3 (hD3 receptor)): 0.615 µM
- IC50 [5]: 0.0016 µM

Compound: CN1CCN(c2cc(Br)cc3c2c(=O)n(Cc2ccccc2Cl)c(=O)n3Cc2ccccc2)CC1 [Example 55, 1-benzyl-7-bromo-3-(2-chloro-benzyl)-5-(4-methyl-piperazin-1-yl)-1H-quinazoline-2,4-dione]
- IC50 (D2 (hD2L receptor)): > 10 µM
- IC50 (D4 (hD4.2 receptor)): > 10 µM
- melting point: 104 to 108 °C
- IC50 [1]: 5.14 µM
- IC50 [2]: 2.72 µM
- IC50 [3]: 0.13 µM
- IC50 [4]: 0.252 µM
- IC50 (D3 (hD3 receptor)): 1.44 µM
- IC50 [5]: 0.0015 µM

Compound: CN1CCN(c2cc(Cl)cc3c2c(=O)n(Cc2ccccc2Cl)c(=O)n3Cc2ccccc2)CC1 [Example 17, 1-benzyl-7-chloro-3-(2-chloro-benzyl)-5-(4-methyl-piperazin-1-yl)-1H-quinazoline-2,4-dione]
- IC50 (D2 (hD2L receptor)): > 10 µM
- IC50 (D4 (hD4.2 receptor)): > 10 µM
- melting point: 87 to 92 °C
- IC50 [1]: 2.18 µM
- IC50 [2]: 3.28 µM
- IC50 [3]: 0.169 µM
- IC50 [4]: 0.512 µM
- IC50 (D3 (hD3 receptor)): 0.138 µM
- IC50 [5]: 0.0005 µM

Compound: O=c1c2c(N3CCNCC3)cc(Cl)cc2n(Cc2ccccc2)c(=O)n1Cc1ccccc1Cl [Example 59, 1-benzyl-7-chloro-3-(2-chloro-benzyl)-5-piperazin-1-yl-1H-quinazoline-2,4-dione]
- IC50 (D2 (hD2L receptor)): > 10 µM
- IC50 (D4 (hD4.2 receptor)): > 10 µM
- melting point: 120 to 125 °C
- IC50 [1]: 7.33 µM
- IC50 [2]: 2.16 µM
- IC50 [3]: 0.132 µM
- IC50 [4]: 0.198 µM
- IC50 (D3 (hD3 receptor)): 0.381 µM
- IC50 [5]: 0.0017 µM

Compound: Cc1ccc(Cn2c(=O)c3c(N4CCN(C)CC4)cc(Cl)cc3n(Cc3ccccc3)c2=O)o1 [Example 47, 1-benzyl-7-chloro-3-(5-methyl-furan-2-ylmethyl)-5-(4-methyl-piperazin-1-yl)-1H-quinazoline-2,4-dione]
- IC50 (D2 (hD2L receptor)): > 10 µM
- IC50 (D4 (hD4.2 receptor)): > 10 µM
- melting point: 132 to 136 °C
- IC50 [1]: 8.74 µM
- IC50 [2]: 1.14 µM
- IC50 [3]: 0.83 µM
- IC50 [4]: 0.465 µM
- IC50 (D3 (hD3 receptor)): 2.81 µM
- IC50 [5]: 0.0014 µM

Compound: CN1CCN(c2cc(Br)cc3c2c(=O)n(Cc2ccccc2)c(=O)n3Cc2ccccc2)CC1 [Example 54, 1,3-dibenzyl-7-bromo-5-(4-methyl-piperazin-1-yl)-1H-quinazoline-2,4-dione]
- IC50 (D2 (hD2L receptor)): > 10 µM
- IC50 (D4 (hD4.2 receptor)): > 10 µM
- melting point: 80 to 84 °C
- IC50 [1]: > 10 µM
- IC50 [2]: 5.01 µM
- IC50 [3]: 0.376 µM
- IC50 [4]: 0.646 µM
- IC50 (D3 (hD3 receptor)): 0.554 µM
- IC50 [5]: 0.0023 µM

Compound: O=c1c2c(N3CCNCC3)cc(Cl)cc2n(Cc2ccccc2)c(=O)n1Cc1ccccc1F [Example 58, 1-benzyl-7-chloro-3-(2-fluoro-benzyl)-5-piperazin-1-yl-quinazoline-2,4-dione]
- IC50 (D2 (hD2L receptor)): > 10 µM
- IC50 (D4 (hD4.2 receptor)): > 10 µM
- melting point: 98 to 109 °C
- IC50 [1]: > 10 µM
- IC50 [2]: 2.85 µM
- IC50 [3]: 0.22 µM
- IC50 [4]: 0.54 µM
- IC50 (D3 (hD3 receptor)): 3.13 µM
- IC50 [5]: 0.0006 µM

Compound: CCCCCCCCn1c(=O)c2c(N3CCN(C)CC3)cc(Cl)cc2n(Cc2ccccc2)c1=O [Example 7, 1-benzyl-7-chloro-5-(4-methyl-piperazin-1-yl)-3-octyl-1H-quinazoline-2,4-dione]
- IC50 (D2 (hD2L receptor)): 2.76 µM
- IC50 (D4 (hD4.2 receptor)): > 10 µM
- melting point: 78 to 80 °C
- IC50 [1]: 2.56 µM
- IC50 [2]: 2.16 µM
- IC50 [3]: 1.14 µM
- IC50 [4]: 1.71 µM
- IC50 (D3 (hD3 receptor)): 0.606 µM
- IC50 [5]: 0.0015 µM

Compound: CN1CCN(c2cc(Cl)cc3c2c(=O)n(Cc2cccc(F)c2)c(=O)n3Cc2ccccc2)CC1 [Example 12, 1-benzyl-7-chloro-3-(3-fluoro-benzyl)-5-(4-methyl-piperazin-1-yl)-1H-quinazoline-2,4-dione]
- IC50 (D2 (hD2L receptor)): > 10 µM
- IC50 (D4 (hD4.2 receptor)): > 10 µM
- melting point: 148 to 150 °C
- IC50 [1]: 1.67 µM
- IC50 [2]: 0.718 µM
- IC50 [3]: 0.622 µM
- IC50 [4]: 1.06 µM
- IC50 (D3 (hD3 receptor)): 0.49 µM
- IC50 [5]: 0.0019 µM
